Data set [1] deals with T1, G9a (Homo sapiens, UniProt Q96KQ7).
T1 construct: purchased BPS Bioscience 52051
T1 sequence (Q96KQ7 1-1210): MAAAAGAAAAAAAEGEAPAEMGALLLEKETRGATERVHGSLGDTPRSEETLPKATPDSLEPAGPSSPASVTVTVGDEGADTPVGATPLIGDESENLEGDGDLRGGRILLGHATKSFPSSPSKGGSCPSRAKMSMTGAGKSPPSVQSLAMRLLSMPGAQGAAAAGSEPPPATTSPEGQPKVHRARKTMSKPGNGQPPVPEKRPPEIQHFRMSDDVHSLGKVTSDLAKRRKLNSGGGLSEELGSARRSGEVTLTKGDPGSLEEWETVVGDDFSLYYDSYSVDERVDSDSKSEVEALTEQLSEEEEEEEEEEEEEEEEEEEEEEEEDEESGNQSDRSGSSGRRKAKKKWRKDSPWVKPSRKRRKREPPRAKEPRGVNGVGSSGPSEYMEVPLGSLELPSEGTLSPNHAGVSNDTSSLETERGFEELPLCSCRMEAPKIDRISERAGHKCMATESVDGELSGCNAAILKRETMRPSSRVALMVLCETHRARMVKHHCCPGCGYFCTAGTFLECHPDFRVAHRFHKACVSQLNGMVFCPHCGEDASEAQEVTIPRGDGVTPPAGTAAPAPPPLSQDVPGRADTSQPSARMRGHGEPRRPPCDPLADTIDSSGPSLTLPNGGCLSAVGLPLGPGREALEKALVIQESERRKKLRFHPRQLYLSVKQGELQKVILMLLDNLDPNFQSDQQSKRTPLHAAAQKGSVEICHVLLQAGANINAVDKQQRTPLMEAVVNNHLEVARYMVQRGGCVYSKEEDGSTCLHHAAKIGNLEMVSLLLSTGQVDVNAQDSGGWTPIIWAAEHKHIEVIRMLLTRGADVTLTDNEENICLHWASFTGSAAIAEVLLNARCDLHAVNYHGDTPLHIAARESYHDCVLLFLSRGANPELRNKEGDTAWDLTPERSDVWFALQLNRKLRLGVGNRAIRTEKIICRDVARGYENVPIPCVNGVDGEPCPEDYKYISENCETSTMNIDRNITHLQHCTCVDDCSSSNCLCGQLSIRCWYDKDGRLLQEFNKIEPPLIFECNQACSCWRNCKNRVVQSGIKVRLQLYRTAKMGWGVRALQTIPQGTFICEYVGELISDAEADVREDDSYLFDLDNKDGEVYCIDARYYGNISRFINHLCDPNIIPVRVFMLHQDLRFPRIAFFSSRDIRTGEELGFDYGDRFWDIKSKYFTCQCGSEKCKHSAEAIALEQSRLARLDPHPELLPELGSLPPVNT
Put plainly: G9a Homogeneous Assay Kit (AlphaLISA) G9a inhibition. It is filed as biochemical. Background: Alpha assays give light when donor and acceptor beads are brought close together.
Method: The percentages of G9a activity for the 10 selected molecules were determined at 100 μM S‐adenosylmethionine (SAM) and peptide substrate using AlphaLISA® technology. These percentages were used to calculate the IC50.
G9a inhibitors were serially diluted between 5 nM and 0.001 nM in 100 % DMSO (Sigma, St. Louis, USA). Then, respective concentrations were subsequently diluted in MilliQ purified water to reach a final concentration ranging between 50 and 0.001 μM in 1 % DMSO in well.
Briefly, a sample containing the G9a enzyme is incubated with the biotinylated substrate plus inhibitor solution for two hours. Next, acceptor beads and primary antibody is added, followed by donor beads. Finally, the Alpha‐counts were read using an AlphaScreen microplate reader. The experiment was run per triplicate. G9aactivity(%)=(C-Cb)/(Ct-Cb)x100
Ct=The chemiluminescence reading in the absence of the compound. The data set here is defined as 100 % activity in the absence of the compound.
Cb=The chemiluminescence reading in absence of enzyme. The data set here is defined as 0 % activity in the absence of the enzyme.
C=The chemiluminescence reading in the presence of the compound.
Data analysis was conducted using GraphPad Prism ver. 9 statistical software. The statistical outliers were identified with Grubb's test and excluded from the analysis. Group comparisons were carried out with a One‐way Analysis of variance (ANOVA), followed by the Dunnett post hoc test. In some cases, comparison between groups was also performed by unpaired t‐test or One‐way ANOVA, followed by Fisher's LSD post hoc test. For the calculation of IC50, non‐linear regressions were performed. […] Values are shown as the mean ± Standard error of the mean (SEM) of at least n=3. Statistical significance was considered when p values were <0.05.

Data set [2] is described as follows: PAMPA‐BBB assay. It counts as in vitro ADME. As to conditions: pig; PAMPA‐BBB, PBS:EtOH (70 : 30); read-out: Permeability (Pe) experimental value. (In general: In PAMPA a lipid-coated filter parts donor from acceptor wells.)
Method: To evaluate the brain penetration of the different compounds, a parallel artificial membrane permeation assay for BBB was used, following the method described by Di et al..[33] The in vitro Pe of fourteen commercial drugs through lipid extract of porcine brain membrane together with the test compounds were determined. Commercial drugs and assayed compounds were tested using a mixture of PBS:EtOH (70 : 30).

Molecules are shown by their SMILES.

In general, remaining activity refers to the signal under treatment as a percentage of the control signal. Regarding `Cn1ccnc1-c1ccc(NCC(c2cccnc2)N2CCOCC2)nn1` (stereo not drawn) [A], in data set [1] (first data set of Table S2), the remaining activity at 0.0001 µM was 31%, the remaining activity at 0.001 µM stood at 27.8%, the remaining activity at 0.01 µM amounted to 22.9% and the remaining activity at 0.1 µM was found to be 22.8%. Also, in data set [1] (first data set of Table S2), the remaining activity at 1 µM came to 14.8%, the remaining activity at 10 µM worked out at 10% and the remaining activity at 50 µM was -0.4%. Also, in data set [1] (second data set of Table S2), the remaining activity at 0.0001 µM is 32.1%, the remaining activity at 0.001 µM amounted to 30.6%, the remaining activity at 0.01 µM is 30.7% and the remaining activity at 0.1 µM was 22.7%. Further, in data set [1] (second data set of Table S2), the remaining activity at 1 µM is 15.1%, the remaining activity at 10 µM amounted to 11.3% and the remaining activity at 50 µM was 0.9%. For the same molecule, in data set [1] (third data set of Table S2), the remaining activity at 0.0001 µM amounted to 31.6%, the remaining activity at 0.001 µM was 29.2%, the remaining activity at 0.01 µM was 26.8% and the remaining activity at 0.1 µM turned out to be 22.7%. Also, in data set [1] (third data set of Table S2), the remaining activity at 1 µM stood at 15%, the remaining activity at 10 µM is 10.6% and the remaining activity at 50 µM was determined as 0.3%.
Broadly, the IC50 is the midpoint of a concentration-inhibition curve. A low value points to higher potency. For `Fc1ccccc1CN1CCC(CN(Cc2ccccn2)CC2CCCO2)CC1` (stereo not drawn) [Compound D], in data set [1] (first data set of Table S2), the remaining activity at 0.0001 µM was determined as 33%, the remaining activity at 0.001 µM was found to be 29.3%, the remaining activity at 0.01 µM is 23% and the remaining activity at 0.1 µM amounted to 15.8%. Also, in data set [1] (first data set of Table S2), the remaining activity at 1 µM is 11.5%, the remaining activity at 10 µM amounted to 8.3% and the remaining activity at 50 µM was 9.9%. In data set [1] (second data set of Table S2), the remaining activity at 0.0001 µM stood at 33.8%, the remaining activity at 0.001 µM is 28.4%, the remaining activity at 0.01 µM stood at 21.5% and the remaining activity at 0.1 µM came to 15.9%. Also, in data set [1] (second data set of Table S2), the remaining activity at 1 µM amounted to 14.2%, the remaining activity at 10 µM is 10.3% and the remaining activity at 50 µM was 12.1%. Moreover, in data set [1] (third data set of Table S2), the remaining activity at 0.0001 µM was 33.4%, the remaining activity at 0.001 µM was determined as 28.8%, the remaining activity at 0.01 µM worked out at 22.2% and the remaining activity at 0.1 µM was determined as 15.9%. In addition, in data set [1] (third data set of Table S2), the remaining activity at 1 µM is 12.8%, the remaining activity at 10 µM is 9.3% and the remaining activity at 50 µM worked out at 11%. The half-inhibitory concentration (IC50) in data set [1] (AlphaLISA, 100 μM SAM and peptide substrate) came out at 10.5 nM.
As to `CN1C(C(=O)Nc2ccccn2)=C(O)c2ccccc2S1(=O)=O` [Piroxicam, reference compound], the Papp in data set [2] is 2 ± 0.08 ×10⁻⁶ cm/s.
Consider `CC(=O)[C@H]1CC[C@H]2[C@@H]3CCC4=CC(=O)CC[C@]4(C)[C@H]3CC[C@]12C` [Progesterone, reference compound], for which the Papp in data set [2] turned out to be 14.7 ± 0.3 ×10⁻⁶ cm/s.

The record behind these values is paper PMC9401600 (Chemmedchem, 2022).
